From patent US8901294B2, “MRI contrast agent having gadolinium complex” (priority 2010, dated 2014)
Like-named read-outs stand apart in the source and are kept apart here. Marks after values point to notes of the source that are not given here.

Key:
[1] = pH7.4; literature data; cited from earlier work
[2] = literature data, cited from earlier work; for LogK [GdL]/[Gd][L] (stability constant): 25° C., μ = 0.10M (KCl)
[3] = 25° C., μ = 0.10M (KCl); literature data; cited from earlier work
[4] = pH7.4; literature data; cited from earlier work; remark: listed apart in the source
[5] = 25° C., μ = 0.10M (KCl)
[6] = for logKsel(Gd/Ca) (selectivity constant): Gd over Ca; for logKsel(Gd/Ca) (selectivity constant) / logKsel(Gd/Cu) (selectivity constant) / logKsel(Gd/Zn) (selectivity constant): 25° C., μ = 0.10M (KCl); for logKsel(Gd/Cu) (selectivity constant): Gd over Cu; for logKsel(Gd/Zn) (selectivity constant): Gd over Zn; for logKGdL(pH7.4) (conditional stability constant): pH 7.4; for pGd: pM = −log[M]free at pH7.4, [M]total = 1 μmol/dm^3, [L]total = 1.1 μmol/dm^3
[7] = for logKZnL(pH7.4) (conditional stability constant): pH 7.4; for pZn: pM = −log[M]free at pH7.4, [M]total = 1 μmol/dm^3, [L]total = 1.1 μmol/dm^3
[8] = for logKCuL(PH7.4) (conditional stability constant): pH 7.4; for pCu: pM = −log[M]free at pH7.4, [M]total = 1 μmol/dm^3, [L]total = 1.1 μmol/dm^3
[9] = for logKCaL(pH7.4) (conditional stability constant): pH 7.4; for pCa: pM = −log[M]free at pH7.4, [M]total = 1 μmol/dm^3, [L]total = 1.1 μmol/dm^3
[10] = Relaxation times (T1, T2) and relaxivities (R1, R2) at 1.5 T; type: physicochemical; conditions: 1.5 T; mean value(±SD)
Procedure: T1 measurements were carried out using an inversion recovery method with a variable inversion time (TI) at 1.5 T. The MR images were acquired at 35 different TI values ranging from 50 to 1750 ms. T1 relaxation times were obtained from the nonlinear least-squares fit of the signal intensity measured at each T1 value. For T2 measurements the CPMG (Carr-Purcell-Meiboon-Gill) pulse sequence was adapted for multiple spin-echo measurements. Thirty-four images were acquired with 34 different echo time (TE) values. T2 relaxation times were obtained from the nonlinear least-squares fit of the mean pixel values for the multiple spin-echo measurements at each echo time. Relaxivities were then calculated as an inverse (R=1/s·mM) of relaxation time per mM. The determined relaxation times and relaxivities are finally transformed to a phantom map. The phantom images were obtained with the same concentration of Dotarem® and gadolinium complexes or comparative purposes. […] Table 2 summarizes the relaxation times and relaxivities for gadolinium complexes of the present invention along with other Gd-complexes.

| SMILES | LogK [H2L]/[HL][H] (protonation constant) [5] | LogK [H3L]/[H2L][H] (protonation constant) [5] | LogK [HL]/[L][H] (protonation constant) [5] | logKsel(Gd/Ca) (selectivity constant) [6] | logKsel(Gd/Cu) (selectivity constant) [6] | logKsel(Gd/Zn) (selectivity constant) [6] | logKGdL(pH7.4) (conditional stability constant) [6] | pGd [6] | logKZnL(pH7.4) (conditional stability constant) [7] | pZn [7] | logKCuL(PH7.4) (conditional stability constant) [8] | pCu [8] | logKCaL(pH7.4) (conditional stability constant) [9] | pCa [9] | also measured |
| --- | --- | --- | --- | --- | --- | --- | --- | --- | --- | --- | --- | --- | --- | --- | --- |
| O=C(O)CN(CCN(CC(=O)O)CC(=O)O)CCN(CC(=O)O)C(COCc1ccccc1)C(=O)O (stereo not shown) [BOPTA] |  |  |  |  |  |  |  |  |  |  |  |  |  |  | logKZnL(pH7.4) (conditional stability constant) [1]: 13.9; LogK [GdL]/[Gd][L] (stability constant) [2]: 22.6; logKGdL(pH7.4) (conditional stability constant) [2]: 18.4; LogK [H2L]/[HL][H] (protonation constant) [3]: 8.21; LogK [H3L]/[H2L][H] (protonation constant) [3]: 4.35; LogK [H4L]/[H3L][H] (protonation constant) [3]: 2.83; LogK [HL]/[L][H] (protonation constant) [3]: 10.71; ΣpKa (overall basicity) [3]: 26.10; logKCuL(PH7.4) (conditional stability constant) [4]: 17.3 |
| O=C(O)CN1CCN(CC(=O)O)CCN(CC(=O)NCC2CCC(C(=O)O)CC2)CCN(CC(=O)O)CC1 (stereo not shown) [Compound 4a, DO3A-tranexamic acid] | 8.91 | 4.93 | 11.73 | 10.56 | 7.02 | 7.87 | 18.73 | 17.73 | 10.86 | 9.86 | 11.70 | 10.70 | 8.16 | 7.16 | LogK [H4L]/[H3L][H] (protonation constant) [5]: 4.87 |
| CCOC(=O)C1CCC(CNC(=O)CN2CCN(CC(=O)O)CCN(CC(=O)O)CCN(CC(=O)O)CC2)CC1 (stereo not shown) [Compound 4b, DO3A-tranexamic Acid Ester Derivative 1] | 9.35 | 5.24 | 10.80 | 6.65 | 4.68 | 5.43 | 16.72 | 15.72 | 11.29 | 10.29 | 12.04 | 11.04 | 10.06 | 9.06 |  |
| C=CCOC(=O)C1CCC(CNC(=O)CN2CCN(CC(=O)O)CCN(CC(=O)O)CCN(CC(=O)O)CC2)CC1 (stereo not shown) [Compound 4c, DO3A-tranexamic Acid Ester Derivative 2] | 8.64 | 5.45 | 10.62 | 6.55 | 2.21 | 3.91 | 16.99 | 15.99 | 13.08 | 12.08 | 14.77 | 13.77 | 10.44 | 9.43 |  |
| O.O=C([O-])CN1CCN(CC(=O)[O-])CCN(CC(=O)NCC2CCC(C(=O)O)CC2)CCN(CC(=O)[O-])CC1.[Gd+3] (stereo not shown) [Compound 5a] |  |  |  |  |  |  |  |  |  |  |  |  |  |  | R1 relaxivity [10]: 3.9 ± 0.04 mM⁻¹ s⁻¹; R2 relaxivity [10]: 4.0 ± 0.04 mM⁻¹ s⁻¹; T1 relaxation time [10]: 256.43 ± 2.63^a msec; T2 relaxation time [10]: 250.02 ± 2.50 ms |
| CNC[C@H](O)[C@@H](O)[C@H](O)[C@H](O)CO.O=C([O-])CN1CCN(CC(=O)[O-])CCN(CC(=O)O)CCN(CC(=O)[O-])CC1.[Gd+3] [Dotarem] |  |  |  |  |  |  |  |  |  |  |  |  |  |  | R1 relaxivity [10]: 3.7 ± 0.04 mM⁻¹ s⁻¹; R2 relaxivity [10]: 4.1 ± 0.21 mM⁻¹ s⁻¹; T1 relaxation time [10]: 270.30 ± 2.92 ms; T2 relaxation time [10]: 244.54 ± 12.5 ms |
| CCOc1ccc(C[C@@H](CN(CCN(CC(=O)O)CC(=O)O)CC(=O)O)N(CC(=O)O)CC(=O)O)cc1 [EOB-DTPA] |  |  |  |  |  |  |  |  |  |  |  |  |  |  | LogK [GdL]/[Gd][L] (stability constant) [2]: 23.46; logKGdL(pH7.4) (conditional stability constant) [2]: 18.7; LogK [H2L]/[HL][H] (protonation constant) [3]: 8.63; LogK [H3L]/[H2L][H] (protonation constant) [3]: 4.26; LogK [H4L]/[H3L][H] (protonation constant) [3]: 2.73; LogK [HL]/[L][H] (protonation constant) [3]: 10.91; ΣpKa (overall basicity) [3]: 26.53 |
